The source of these data is ChEMBL document CHEMBL1152847, “Molecular modeling and inhibition of phospholipase A2 by polyhydroxy phenolic compounds” (Eur J Med Chem, 2009).

Assay [1] relates to Crotalus adamanteus. Kind of assay: Activity of Crotalus adamanteus venom PLA2 assessed as 1-hexadecanoyl-2-(1-pyrenedecanoyl)-sn-glycero-3-phosphoglycerol hydrolysis at 0.15 uM.
Assay [2] has as its system Crotalus adamanteus. The assay can be described thus: Activity of Crotalus adamanteus venom PLA2 assessed as 1-hexadecanoyl-2-(1-pyrenedecanoyl)-sn-glycero-3-phosphoglycerol hydrolysis at 0.30 uM.
The nature of assay [3]: Inhibition of Crotalus adamanteus venom PLA2 assessed as effect on 1-hexadecanoyl-2-(1-pyrenedecanoyl)-sn-glycero-3-phosphoglycerol hydrolysis at 0.15 uM.
Assay [4] can be described thus: Inhibition of Crotalus adamanteus venom PLA2 assessed as effect on 1-hexadecanoyl-2-(1-pyrenedecanoyl)-sn-glycero-3-phosphoglycerol hydrolysis at 0.30 uM.
Assay [5] deals with Crotalus adamanteus. The assay can be described thus: Inhibition of Crotalus adamanteus venom PLA2-induced edema in Swiss mouse at 50 ug, id. It is filed as functional, organism-based.

Activity calls are given as the source filed them. The calls are words filed in the database; no cut-off is given here.

What is called Km is the substrate concentration at which the rate is half of its maximum. A word on the Vmax: it is the rate approached at saturating substrate. By Ki is commonly meant a dissociation constant, usually derived from enzyme kinetics or from competition with a known ligand. For the compound `CC(=O)c1ccc(O)cc1O`, the Km turned out to be 4.03 mM in assay [1] and 7.57 mM in assay [2]. Also, the values for the Vmax in assay [1] and in assay [2] were 18.1 nmol/min and 18.2 nmol/min, respectively. In addition, the Ki is 33.3 nM in assay [3] and 32.1 nM in assay [4].
As to `CC(=O)c1c(O)cccc1O`, the Km in assay [1] amounted to 4.25 mM; in assay [2] it was 7.78 mM. In addition, the Vmax in assay [1] amounted to 18.2 nmol/min; in assay [2] it was 18 nmol/min. In addition, the Ki in assay [3] came to 30.1 nM; in assay [4], 31.2 nM.
On to `CC(=O)c1c(O)cc(O)cc1O` [2,4,6-TRIHYDROXYACETOPHENONE], for which the Km is 15.1 mM in assay [1] and 28.2 mM in assay [2]. In addition, the Vmax in assay [1] is 18 nmol/min; in assay [2], 18.3 nmol/min. Moreover, the Ki in assay [3] stood at 8.9 nM; in assay [4], 8.74 nM. Also, the outcome in assay [5] was Active.
As to `Oc1cc(O)cc(O)c1` [PHLOROGLUCINOL], the Km was determined as 12.1 mM in assay [1] and 23.2 mM in assay [2]. For the same compound, the Vmax worked out at 18.1 nmol/min in assay [1] and 18 nmol/min in assay [2]. Also, the Ki in assay [3] amounted to 8.77 nM; in assay [4] it was 8.86 nM. Besides, the result in assay [5] was Active.
For `Oc1cccc(O)c1` [RESORCINOL], the Km in assay [1] was found to be 12.6 mM; in assay [2], 24.8 mM. Besides, the Vmax in assay [1] was 18.1 nmol/min; in assay [2] it was 18 nmol/min. The Ki in assay [3] came to 8.83 nM; in assay [4], 8.72 nM. In addition, in assay [5], the outcome was Active.
